Test results published in patent US12649733B2, “3,6-diamino-pyridazin-3-yl derivatives, pharmaceutical compositions containing them and their uses as pro-apoptotic agents” (LES LABORATOIRES SERVIER, priority 2019, dated 2026).

Columns and labels:
[1] = biological target: T1, Bcl-xL protein (Homo sapiens, UniProt Q07817, N197C); assay: Fluorescence quenching assay (PUMA peptide displacement); assay type: binding; details: 1 nM protein, 400 nM peptide, 2 hours at 23° C.; KI determined from IC50
T1 construct: (2-197)[N197C]; His-His (two His8 stretches joined by a Gly/Ala/Ser/Thr linker)
T1 sequence (Q07817 2-197 N197C): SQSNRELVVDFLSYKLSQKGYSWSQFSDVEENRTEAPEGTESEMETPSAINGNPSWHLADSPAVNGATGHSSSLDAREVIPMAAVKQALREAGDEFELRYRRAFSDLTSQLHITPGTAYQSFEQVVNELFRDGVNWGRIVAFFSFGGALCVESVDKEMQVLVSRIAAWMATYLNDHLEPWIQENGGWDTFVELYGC
From the text: Fluorescence quenching assay measures the change in fluorescence intensity of C-terminally Cy5-labeled BCL-xL protein, His-His-(EK)-hs ? (2-197)[N197C] (UniProtKB® primary accession number Q07817-1) having an amino acid sequence (SEQ ID:03): [[…] […] […] […] […]] which is linked in C-terminal region to the amino acid X which corresponds to a cysteine labeled on the sulfur with Sulfo-Cyanine5 from Lumiprobe GmbH catalogue number 13380, upon binding of a C-terminally labeled peptide derived from PUMA (UniProtKB® primary accession number Q9BXH1) having an aminoacid sequence (SEQ ID:04): [[…]] which is linked in C-terminal region to the amino acid X′ where X′ is cysteine labeled on the sulfur with TQ5WS from AAT Bioquest catalogue number 2079.
The addition of a compound which binds competitively to the same site as the peptide will result in an increase in the fluorescence intensity of the protein due to displacement of the fluorescence quencher.
An 11-point serial dilution of each compound was prepared in DMSO the final buffer conditions were 10 mM 4-(2-hydroxyethyl)-1-piperazineethanesulfonic acid [HEPES], 150 mM NaCl, 0.05% Tween 20, pH 7.4 and 5% DMSO. The final protein concentration in the assay was 1 nM with the peptide present at 400 nM. The experiments were incubated for 2 hours at 23° C. before fluorescence intensity was measured on a Biotek SynergyNeo plate reader (Excitation 620 nm, emission 680 nm). […] The KI values were determined from the IC50 values according to Cer et al, Nucleic Acids Res, 2009, Jul. 1: 37(WebServer issue): W441-W445.

[2] = tested on: MOLT-4 cells; assay: MOLT-4 cell viability, MTT assay; assay type: cell-based; details: Homo sapiens, MOLT-4, 48 h, 48 h exposure
Method in brief: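 Viability read by MTT reduction (OD 540 nm after overnight SDS/HCl lysis) after 48 h compound treatment of cells in RPMI 1640/10% FBS. Triplicates at nine concentrations, 3.16-fold apart; four-parameter curve fitting yields IC50.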

Ki [1] | IC50 [2] | SMILES
0.0052 nM |  | Cc1cc(N(CCCCNCCN2CCOCC2)c2nc(C(=O)O)c(CCCOc3ccc(C#CCN(C)C)cc3F)s2)nnc1Nc1nc2ccccc2s1 [Example 180, 2-[[6-(1,3-Benzothiazol-2-ylamino)-5-methyl-pyridazin-3-yl]-[4-(2-morpholinoethylamino)butyl]amino]-5-[3-[4-[3-(dimethylamino)prop-1-ynyl]-2-fluoro-phenoxy]propyl]thiazole-4-carboxylic acid]
0.0043 nM |  | Cc1cc(N(CCCCNC2CCN(C)CC2)c2nc(C(=O)O)c(CCCOc3ccc(C#CCN(C)C)cc3F)s2)nnc1Nc1nc2ccccc2s1 [Example 181, 2-[[6-(1,3-Benzothiazol-2-ylamino)-5-methyl-pyridazin-3-yl]-[4-[(1-methyl-4-piperidyl)amino]butyl]amino]-5-[3-[4-[3-(dimethylamino)prop-1-ynyl]-2-fluoro-phenoxy]propyl]thiazole-4-carboxylic acid]
0.023 nM |  | CNCC#Cc1ccc(OCCCc2sc(N(C)c3cc(C(F)(F)F)c(Nc4nc5ccccc5s4)nn3)nc2C(=O)O)c(F)c1 [Example 209, 2-[[6-(1,3-Benzothiazol-2-ylamino)-5-(trifluoromethyl)pyridazin-3-yl]-methyl-amino]-5-[3-[2-fluoro-4-[3-(methylamino)prop-1-ynyl]phenoxy]propyl]thiazole-4-carboxylic acid]
0.0053 nM | 752 nM | Cc1cc(N(CCCCC[N+](C)(C)CCO)c2nc(C(=O)[O-])c(CCCOc3ccc(C#CCN(C)C)cc3F)s2)nnc1Nc1nc2ccccc2s1 [Example 226, 2-[[6-(1,3-Benzothiazol-2-ylamino)-5-methyl-pyridazin-3-yl]-[5-[2-hydroxyethyl(dimethyl)ammonio]pentyl]amino]-5-[3-[4-[3-(dimethylamino)prop-1-ynyl]-2-fluoro-phenoxy]propyl]thiazole-4-carboxylate]
0.0035 nM | 802 nM | Cc1cc(N(CCCCC[N+](C)(C)CC(=O)O)c2nc(C(=O)[O-])c(CCCOc3ccc(C#CCN(C)C)cc3F)s2)nnc1Nc1nc2ccccc2s1 [Example 227, 2-[[6-(1,3-Benzothiazol-2-ylamino)-5-methyl-pyridazin-3-yl]-[5-[carboxymethyl(dimethyl)ammonio]pentyl]amino]-5-[3-[4-[3-(dimethylamino)prop-1-ynyl]-2-fluoro-phenoxy]propyl]thiazole-4-carboxylate]
0.0017 nM |  | CNCC#Cc1ccc(OCCCc2sc(N(CCCC[N+](C)(C)C)c3cc(C)c(Nc4nc5ccccc5s4)nn3)nc2C(=O)O)c(F)c1 [Example 232, 2-[[6-(1,3-Benzothiazol-2-ylamino)-5-methyl-pyridazin-3-yl]-[4-(trimethylammonio)butyl]amino]-5-[3-[2-fluoro-4-[3-(methylamino)prop-1-ynyl]phenoxy]propyl]thiazole-4-carboxylate]
0.0018 nM | 750 nM | CNCC#Cc1ccc(OCCCc2sc(N(CCCP(=O)(O)O)c3cc(C)c(Nc4nc5ccccc5s4)nn3)nc2C(=O)O)c(F)c1 [Example 237, 2-[[6-(1,3-Benzothiazol-2-ylamino)-5-methyl-pyridazin-3-yl]-(3-phosphonopropyl)amino]-5-[3-[2-fluoro-4-[3-(methylamino)prop-1-ynyl]phenoxy]propyl]thiazole-4-carboxylic acid]
0.0045 nM | 149 nM | Cc1cc(N(CCCC(=O)O)c2nc(C(=O)O)c(CCCOc3ccc(C#CCN(C)C)cc3F)s2)nnc1Nc1nc2ccccc2s1 [Example 238, 2-({6-[(1,3-Benzothiazol-2-yl)amino]-5-methylpyridazin-3-yl}(3-carboxypropyl)amino)-5-(3-{4-[3-(dimethylamino)prop-1-yn-1-yl]-2-fluorophenoxy}propyl)-1,3-thiazole-4-carboxylic acid]
0.0027 nM | 314 nM | Cc1cc(N(CCCP(=O)(O)O)c2nc(C(=O)O)c(CCCOc3ccc(C#CCN(C)C)cc3F)s2)nnc1Nc1nc2ccccc2s1 [Example 239, 2-({6-[(1,3-Benzothiazol-2-yl)amino]-5-methylpyridazin-3-yl}(3-phosphonopropyl)amino)-5-(3-{4-[3-(dimethylamino)prop-1-yn-1-yl]-2-fluorophenoxy}propyl)-1,3-thiazole-4-carboxylic acid]
0.0073 nM | 1320 nM | Cc1cc(N(CCCS(=O)(=O)O)c2nc(C(=O)O)c(CCCOc3ccc(C#CCN(C)C)cc3F)s2)nnc1Nc1nc2ccccc2s1 [Example 240, 2-({6-[(1,3-Benzothiazol-2-yl)amino]-5-methylpyridazin-3-yl}(3-sulfopropyl)amino)-5-(3-{4-[3-(dimethylamino)prop-1-yn-1-yl]-2-fluorophenoxy}propyl)-1,3-thiazole-4-carboxylic acid]
0.0094 nM | 1190 nM | Cc1cc(N(CCCCS(=O)(=O)O)c2nc(C(=O)O)c(CCCOc3ccc(C#CCN(C)C)cc3F)s2)nnc1Nc1nc2ccccc2s1 [Example 241, 2-({6-[(1,3-Benzothiazol-2-yl)amino]-5-methylpyridazin-3-yl}(4-sulfobutyl)amino)-5-(3-{4-[3-(dimethylamino)prop-1-yn-1-yl]-2-fluorophenoxy}propyl)-1,3-thiazole-4-carboxylic acid]
0.0078 nM | 525 nM | Cc1cc(N(CCCCP(=O)(O)O)c2nc(C(=O)O)c(CCCOc3ccc(C#CCN(C)C)cc3F)s2)nnc1Nc1nc2ccccc2s1 [Example 242, 2-({6-[(1,3-Benzothiazol-2-yl)amino]-5-methylpyridazin-3-yl}(4-phosphonobutyl)amino)-5-(3-{4-[3-(dimethylamino)prop-1-yn-1-yl]-2-fluorophenoxy}propyl)-1,3-thiazole-4-carboxylic acid]
0.005 nM | 112 nM | Cc1cc(N(CCCCC(=O)O)c2nc(C(=O)O)c(CCCOc3ccc(C#CCN(C)C)cc3F)s2)nnc1Nc1nc2ccccc2s1 [Example 243, 2-({6-[(1,3-Benzothiazol-2-yl)amino]-5-methylpyridazin-3-yl}(4-carboxybutyl)amino)-5-(3-{4-[3-(dimethylamino)prop-1-yn-1-yl]-2-fluorophenoxy}propyl)-1,3-thiazole-4-carboxylic acid]
0.0012 nM | 2.81 nM | Cc1cc(N(C)c2ccc(-c3cnn(CC45CC6(C)CC(C)(C4)CC(OCCNCC[C@H](O)CO)(C6)C5)c3C)c(C(=O)O)n2)nnc1Nc1nc2ccccc2s1 [Example 247, 6-[{6-[(1,3-benzothiazol-2-yl)amino]-5-methylpyridazin-3-yl}(methyl)amino]-3-(1-{[3-(2-{[(3S)-3,4-dihydroxybutyl]amino}ethoxy)-5,7-dimethyladamantan-1-yl]methyl}-5-methyl-1H-pyrazol-4-yl)pyridine-2-carboxylic acid]
0.0022 nM | 0.246 nM | Cc1cc(N(C)c2ccc(-c3cnn(CC45CC6(C)CC(C)(C4)CC(OCCN(C)C)(C6)C5)c3C)c(C(=O)O)n2)nnc1Nc1nc2ccccc2s1 [Example 250, 6-[{6-[(1,3-benzothiazol-2-yl)amino]-5-methylpyridazin-3-yl}(methyl)amino]-3-[1-{{3-[2-(dimethylamino)ethoxy]-5,7-dimethyladamantan-1-yl}methyl)-5-methyl-1H-pyrazol-4-yl]pyridine-2-carboxylic acid]
0.07 nM | 31.7 nM | C#CCCCN(c1cc(C)c(Nc2nc3ccccc3s2)nn1)c1nc(C(=O)O)c(CCCOc2ccc(C#CCNC)cc2F)s1 [Example 253, 2-[{6-[(1,3-benzothiazol-2-yl)amino]-5-methylpyridazin-3-yl}(pent-4-yn-1-yl)amino]-5-(3-{2-fluoro-4-[3-(methylamino)prop-1-yn-1-yl]phenoxy}propyl)-1,3-thiazole-4-carboxylic acid]
0.016 nM | 43.8 nM | CNCC#Cc1ccc(OCCCc2sc(N(CCCCCN=[N+]=[N-])c3cc(C)c(Nc4nc5ccccc5s4)nn3)nc2C(=O)O)c(F)c1 [Example 267, 2-[5-azidopentyl-[6-[(1,3-benzothiazol-2-yl)amino]-5-methyl-pyridazin-3-yl]amino]-5-[3-[2-fluoro-4-[3-(methylamino)prop-1-ynyl]phenoxy]propyl]-1,3-thiazole-4-carboxylic acid]
0.0023 nM | 0.255 nM | Cc1cc(N(C)c2ccc(-c3cnn(CC45CC6(C)CC(C)(C4)CC(OCCNCCCO)(C6)C5)c3C)c(C(=O)O)n2)nnc1Nc1nc2ccccc2s1 [Example 268, 6-[[6-(1,3-benzothiazol-2-ylamino)-5-methyl-pyridazin-3-yl]-methyl-amino]-3-[1-[[3-[2-(3-hydroxypropylamino)ethoxy]-5,7-dimethyl-1-adamantyl]methyl]-5-methyl-pyrazol-4-yl]pyridine-2-carboxylic acid]
